Laboratory results from US8501732B2, “Aminomethyl quinolone compounds” (Hoffmann-La Roche Inc., priority 2011, dated 2013).
Where a name gives a salt, the structure may show the parent alone.

molecular target: JNK1 (Homo sapiens (Human), UniProt P45983); experiment: In Vitro JNK1 Assay (TR-FRET, phosphorylation of GST-c-Jun); format: biochemical; details: not given
Experimental: Phosphorylation of GST-c-Jun protein (amino acid residues 1-79) was measured as JNK1 activity. […] The reaction buffer contained 50 mM HEPES, pH […], 1 mM DTT, 0.1 mM Na3VO4 and 0.2 mg/mL BSA. After 30 min. incubation at room temperature, the reaction was terminated by adding buffer containing 8 mM EDTA and a polyclonal anti-phospho-c-Jun antibody (Cell Signaling #9261L), followed by an additional incubation of 30 min. at room temperature. […] Time-resolved Fluorescence Resonance Energy Transfer (TR-FRET) signals were measured 1 hr. later on the EnVision reader (Perkin Elmer). Compound potency was assessed at 10 serially diluted concentrations. Percentage of inhibition at each concentration was determined to generate an IC50 value for each compound.

JNK1, sequence (P45983 whole entry, the tested form may be a part): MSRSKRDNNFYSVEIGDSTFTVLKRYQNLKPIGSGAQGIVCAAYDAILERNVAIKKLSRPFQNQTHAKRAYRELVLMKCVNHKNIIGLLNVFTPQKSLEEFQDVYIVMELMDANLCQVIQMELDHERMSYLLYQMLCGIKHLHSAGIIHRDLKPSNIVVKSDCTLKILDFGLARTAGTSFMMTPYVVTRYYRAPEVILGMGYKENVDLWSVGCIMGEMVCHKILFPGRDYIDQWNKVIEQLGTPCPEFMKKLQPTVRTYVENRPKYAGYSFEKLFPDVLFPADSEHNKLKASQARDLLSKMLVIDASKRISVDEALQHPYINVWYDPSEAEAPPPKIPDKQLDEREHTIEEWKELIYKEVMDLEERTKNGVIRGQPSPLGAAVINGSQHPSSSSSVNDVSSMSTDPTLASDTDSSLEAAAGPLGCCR

Row | Compound | IC50 [nM]
1 | COC(=O)c1c(CNC(=O)Oc2ccccc2)c(=O)c2ccc(Cl)cc2n1-c1ccccc1 [Example I-210, 7-Chloro-4-oxo-3-(phenoxycarbonylamino-methyl)-1-phenyl-1,4-dihydro-quinoline-2-carboxylic acid methyl ester] | 1100

same assay, conditions: 0.2 nM active JNK1 kinase, 26.7 nM GST-c-Jun, 2 μM ATP, 30 min at room temperature

Row | Compound | IC50 [nM]
2 | O=C(NCc1cn(-c2ccccc2)c2cc(Cl)ccc2c1=O)N1CCCCC1 [Example I-188, Piperidine-1-carboxylic acid (7-chloro-4-oxo-1-phenyl-1,4-dihydro-quinolin-3-yl-methyl)-amide] | 1700
3 | NC(=O)c1ccc(C(=O)NCc2cn(-c3ccccc3)c3cc(Cl)ccc3c2=O)cc1 [Example I-50, N-(7-Chloro-4-oxo-1-phenyl-1,4-dihydro-quinolin-3-ylmethyl)-terephthal-amide] | 300
4 | O=C(NCc1cn(-c2ccccc2)c2cc(Cl)ccc2c1=O)NC1CCN(S(=O)(=O)c2ccccc2)CC1 [Example I-196, 1-(7-Chloro-4-oxo-1-phenyl-1,4-dihydro-quinolin-3-ylmethyl)-3-(1-phenylsulfonyl-piperidin-4-yl)-urea] | 1100
5 | 1-(4-Chloro-3-fluoro-phenyl)-3-(7-chloro-4-oxo-1-phenyl-1,4-dihydro-quinolin-3-yl-methyl)-urea [Example I-204] | 1100
6 | O=C(NCc1cn(-c2ccccc2)c2cc(Cl)ccc2c1=O)c1cccc(F)c1F [Example I-59, N-(7-Chloro-4-oxo-1-phenyl-1,4-dihydro-quinolin-3-ylmethyl)-2,3-difluoro-benzamide] | 1700
7 | O=C(NCc1cn(-c2ccccc2)c2cc(Cl)ccc2c1=O)NC1CCCC1 [Example I-184, 1-(7-Chloro-4-oxo-1-phenyl-1,4-dihydro-quinolin-3-ylmethyl)-3-cyclopentyl-urea] | 920
8 | CN(C)c1ccc(NC(=O)NCc2cn(-c3ccccc3)c3cc(Cl)ccc3c2=O)cc1 [Example I-202, 1-(7-Chloro-4-oxo-1-phenyl-1,4-dihydro-quinolin-3-ylmethyl)-3-(4-dimethylamino-phenyl)-urea] | 630
9 | CS(=O)(=O)C1CCN(C(=O)N2CCC(NC(=O)NCc3cn(-c4ccccc4)c4cc(Cl)ccc4c3=O)CC2)CC1 [Example I-199, 1-(7-Chloro-4-oxo-1-phenyl-1,4-dihydro-quinolin-3-ylmethyl)-3-[1-(4-methanesulfonyl-piperidine-1-carbonyl)-piperidin-4-yl]-urea] | 1600
10 | O=C(NCc1cn(-c2ccccc2)c2cc(Cl)ccc2c1=O)c1ccc(=O)n(Cc2ccccc2)c1 [Example I-52, 1-Benzyl-6-oxo-1,6-dihydro-pyridine-3-carboxylic acid (7-chloro-4-oxo-1-phenyl-1,4-dihydro-quinolin-3-ylmethyl)-amide] | 380
11 | O=C(NCc1cn(-c2ccccc2)c2cc(Cl)ccc2c1=O)N1CCN(c2ccccc2)CC1 [Example I-180, 4-Phenyl-piperazine-1-carboxylic acid (7-chloro-4-oxo-1-phenyl-1,4-dihydro-quinolin-3-ylmethyl)-amide] | 120
12 | O=C(NCc1cn(-c2ccccc2)c2cc(Cl)ccc2c1=O)c1cc(F)ccc1F [Example I-60, N-(7-Chloro-4-oxo-1-phenyl-1,4-dihydro-quinolin-3-ylmethyl)-2,5-difluoro-benzamide] | 1900
13 | COc1ccc(NC(=O)NCc2cn(-c3ccccc3)c3cc(Cl)ccc3c2=O)cc1 [Example I-203, 1-(7-Chloro-4-oxo-1-phenyl-1,4-dihydro-quinolin-3-ylmethyl)-3-(4-methoxy-phenyl)-urea] | 650
14 | COC(=O)c1ccc(NC(=O)NCc2cn(-c3ccccc3)c3cc(Cl)ccc3c2=O)cc1 [Example I-206, 4-[3-(7-Chloro-4-oxo-1-phenyl-1,4-dihydro-quinolin-3-ylmethyl)-ureido]-benzoic acid methyl ester] | 2700

Results, then the compound that gave them:

Row | IC50 [nM] | Compound
15 | 580 | O=C(NCc1cn(-c2ccccc2)c2cc(Cl)ccc2c1=O)NC1CCN(C(=O)OCc2ccccc2)CC1 [Example I-195, 4-[3-(7-Chloro-4-oxo-1-phenyl-1,4-dihydro-quinolin-3-ylmethyl)-ureido]-piperidine-1-carboxylic acid benzyl ester]
16 | 130 | NC1CCN(c2ccc(C(=O)NCc3cn(-c4ccccc4)c4cc(Cl)ccc4c3=O)cn2)CC1 [Example I-90, 4-Amino-3,4,5,6-tetrahydro-2H-[1,2′]bipyridinyl-5′-carboxylic acid (7-chloro-4-oxo-1-phenyl-1,4-dihydro-quinolin-3-ylmethyl)-amide trifluoroacetate]
17 | 110 | NC(=O)C1CCN(c2ccc(C(=O)NCc3cn(-c4ccccc4)c4cc(Cl)ccc4c3=O)cn2)CC1 [Example I-86, 3,4,5,6-Tetrahydro-2H-[1,2′]bipyridinyl-4,5′-dicarboxylic acid 4-amide-5′-[(7-chloro-4-oxo-1-phenyl-1,4-dihydro-quinolin-3-ylmethyl)-amide]]
18 | 330 | CC(C)(C)OC(=O)N1CCC(C(=O)NCc2cn(-c3ccccc3)c3cc(Cl)ccc3c2=O)C1 (stereo not shown) [Example I-51, 3-[(7-Chloro-4-oxo-1-phenyl-1,4-dihydro-quinolin-3-ylmethyl)-carbamoyl]-pyrrolidine-1-carboxylic acid tert-butyl ester]
19 | 2100 | CS(=O)(=O)N1CCC(NC(=O)NCc2cn(-c3ccccc3)c3cc(Cl)ccc3c2=O)CC1 [Example I-197, 1-(7-Chloro-4-oxo-1-phenyl-1,4-dihydro-quinolin-3-ylmethyl)-3-(1-methanesulfonyl-piperidin-4-yl)-urea]
20 | 100 | O=C(NCc1cn(-c2ccccc2F)c2cc(F)ccc2c1=O)c1ccc(N2CCS(=O)(=O)CC2)nc1 [Example I-107, 6-(1,1-Dioxo-1-thiomorpholin-4-yl)-N-[7-fluoro-1-(2-fluoro-phenyl)-4-oxo-1,4-dihydro-quinolin-3-ylmethyl]-nicotinamide]
21 | 100 | COC(=O)c1c(CNC(=O)c2ccccn2)c(=O)c2ccc(Cl)cc2n1-c1ccccc1 [Example I-146, 7-Chloro-4-oxo-1-phenyl-3-{[(pyridine-2-carbonyl)-amino]-methyl}-1,4-dihydro-quinoline-2-carboxylic acid methyl ester]
22 | 240 | CN(C)C(=O)c1c(CNC(=O)c2ccc(F)cc2)c(=O)c2ccc(Cl)cc2n1-c1ccccc1 [Example I-20, 7-Chloro-3-[(4-fluoro-benzoylamino)-methyl]-4-oxo-1-phenyl-1,4-di-hydro-quinoline-2-carboxylic acid dimethylamide]
23 | 150 | CN(C)C(=O)c1c(CNC(=O)c2ccc(-c3cnco3)cc2)c(=O)c2ccc(Cl)cc2n1-c1ccccc1 [Example I-18, 7-Chloro-3-[(4-oxazol-5-yl-benzoylamino)-methyl]-4-oxo-1-phenyl-1,4-dihydro-quinoline-2-carboxylic acid dimethylamide]
24 | 740 | O=C(NCc1cn(-c2ccccc2Cl)c2cc(Cl)ccc2c1=O)c1ccc(-c2cn[nH]c2)nc1 [Example I-102, N-[7-Chloro-1-(2-chloro-phenyl)-4-oxo-1,4-dihydro-quinolin-3-ylmethyl]-6-(1H-pyrazol-4-yl)-nicotinamide]
25 | 350 | O=c1c(CNc2ccnc(N3CCCCC3)n2)cn(-c2ccccc2)c2cc(Cl)ccc12 [Example I-174, 7-Chloro-1-phenyl-3-[(2-piperidin-1-yl-pyrimidin-4-ylamino)-methyl]-1H-quinolin-4-one trifluoroacetate salt]
